Several values for one entry are separate records, joined by “and”; a condition that tells them apart may be missing. Identical values can stand only once. Toxic doses and inconclusive results are not listed. How the source made its calls: active means survival T/C of 150% or more; inactive means T/C below 125% in these data.
System: CD2F1 mice, L1210 leukemia ip, survival T/C
Assay: NCI In Vivo Anticancer Drug Screen. Data for tumor model L1210 Leukemia (intraperitoneal) in CD2F1 (CDF1) mice
Details: higher = longer survival
Summary of the method: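 Ratio T/C, where T is the treated-group value and C the vehicle-dosed control value, from mice implanted with a transplantable tumor.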

[1] = endpoint: mean survival time, dose: 100.0 mg/kg/injection, schedule: Q01DX001 (ip), vehicle: saline with Tween-80
[2] = endpoint: mean survival time, dose: 200.0 mg/kg/injection, schedule: Q01DX001 (ip), vehicle: saline with Tween-80
[3] = endpoint: mean survival time, dose: 400.0 mg/kg/injection, schedule: Q01DX001 (ip), vehicle: saline with Tween-80
[4] = endpoint: mean survival time, dose: 100.0 mg/kg/injection, schedule: Q01DX009 (ip), vehicle: saline with Tween-80
[5] = endpoint: mean survival time, dose: 200.0 mg/kg/injection, schedule: Q01DX009 (ip), vehicle: saline with Tween-80
[6] = endpoint: mean survival time, dose: 400.0 mg/kg/injection, schedule: Q01DX009 (ip), vehicle: saline with Tween-80
[7] = endpoint: mean survival time, dose: 100.0 mg/kg/injection, schedule: Q04DX003 (ip), vehicle: saline with Tween-80
[8] = endpoint: mean survival time, dose: 200.0 mg/kg/injection, schedule: Q04DX003 (ip), vehicle: saline with Tween-80
[9] = endpoint: mean survival time, dose: 400.0 mg/kg/injection, schedule: Q04DX003 (ip), vehicle: saline with Tween-80
[10] = endpoint: mean survival time, dose: 25.0 mg/kg/injection, schedule: Q04DX002 (ip), vehicle: saline with Tween-80
[11] = endpoint: mean survival time, dose: 50.0 mg/kg/injection, schedule: Q01DX009 (ip), vehicle: saline with Tween-80
[12] = endpoint: mean survival time, dose: 50.0 mg/kg/injection, schedule: Q04DX002 (ip), vehicle: saline with Tween-80
[13] = endpoint: mean survival time, dose: 100.0 mg/kg/injection, schedule: Q04DX002 (ip), vehicle: saline with Tween-80

Measured: T/C

Nc1ccc2nsnc2c1
inactive: endpoint: mean survival time, dose: 50.0 mg/kg/injection, schedule: Q01DX001 (ip), vehicle: Klucel (hydroxypropylcellulose) (HPC) 105 % of control | endpoint: mean survival time, dose: 100.0 mg/kg/injection, schedule: Q01DX001 (ip), vehicle: Klucel (hydroxypropylcellulose) (HPC) 90 % of control | endpoint: mean survival time, dose: 200.0 mg/kg/injection, schedule: Q01DX001 (ip), vehicle: Klucel (hydroxypropylcellulose) (HPC) 103 % of control

CC(=O)CC(C)=NCCN=C(C)CC(C)=O.[Pd]
inactive: endpoint: mean survival time, dose: 3.13 mg/kg/injection, schedule: Q04DX003 (ip), vehicle: distilled water + Tween-80 93 % of control | endpoint: mean survival time, dose: 6.25 mg/kg/injection, schedule: Q04DX003 (ip), vehicle: distilled water + Tween-80 108 % of control | endpoint: mean survival time, dose: 12.5 mg/kg/injection, schedule: Q04DX003 (ip), vehicle: distilled water + Tween-80 100 % of control

CCCCC=C(C1CCCC1C)C1CCCC1C (configuration not stated)
inactive: [1] 97 % of control | [2] 102 % of control | [3] 94 % of control

CC(CC(=O)Nc1ccc(S(=O)(=O)F)cc1)c1ccc(N2C(N)=NC(N)=NC2(C)C)cc1 (configuration not stated)
inactive: endpoint: mean survival time, dose: 12.5 mg/kg/injection, schedule: Q01DX009 (ip), vehicle: saline 109 % of control | endpoint: mean survival time, dose: 25.0 mg/kg/injection, schedule: Q01DX009 (ip), vehicle: saline 109 % of control | endpoint: mean survival time, dose: 50.0 mg/kg/injection, schedule: Q01DX009 (ip), vehicle: saline 113 % of control | endpoint: mean survival time, dose: 100.0 mg/kg/injection, schedule: Q01DX009 (ip), vehicle: saline 113 % of control | endpoint: mean survival time, dose: 100.0 mg/kg/injection, schedule: Q#A X018 (ip), vehicle: saline 116 % of control | endpoint: mean survival time, dose: 150.0 mg/kg/injection, schedule: Q#A X018 (ip), vehicle: saline 119 % of control | endpoint: mean survival time, dose: 200.0 mg/kg/injection, schedule: Q01DX009 (ip), vehicle: saline 113 % of control and 121 % of control | endpoint: mean survival time, dose: 300.0 mg/kg/injection, schedule: Q01DX009 (ip), vehicle: saline 118 % of control | endpoint: mean survival time, dose: 400.0 mg/kg/injection, schedule: Q01DX009 (ip), vehicle: saline 124 % of control

COC(=O)CCC1CCC(=O)O1 (configuration not stated)
inactive: [4] 98 % of control | endpoint: mean survival time, dose: 100.0 mg/kg/injection, schedule: Q04DX003 (ip), vehicle: saline 102 % of control | [5] 105 % of control | endpoint: mean survival time, dose: 200.0 mg/kg/injection, schedule: Q04DX003 (ip), vehicle: saline 100 % of control | [6] 94 % of control | endpoint: mean survival time, dose: 400.0 mg/kg/injection, schedule: Q04DX003 (ip), vehicle: saline 100 % of control

O=C(O)c1cc2ccccc2o1
inactive: [1] 94 % of control | [7] 95 % of control | [2] 98 % of control | [8] 94 % of control

CC(C)CNC1=CC(=O)c2ccccc2C1=O
inactive: [7] 95 % of control | [8] 98 % of control | [9] 101 % of control

CC(C)OC(=O)N1C(=O)C2C3CCC(O3)C2C1=O (configuration not stated)
inactive: endpoint: mean survival time, dose: 25.0 mg/kg/injection, schedule: Q01DX009 (ip), vehicle: saline with Tween-80 105 % of control | [10] 101 % of control | [11] 97 % of control | [12] 101 % of control | [4] 97 % of control | [13] 106 % of control | endpoint: mean survival time, dose: 400.0 mg/kg/injection, schedule: Q04DX002 (ip), vehicle: saline with Tween-80 97 % of control

O=C(NCC#CCN1CCCC1)Nc1cccc(Cl)c1
inactive: endpoint: mean survival time, dose: 12.5 mg/kg/injection, schedule: Q04DX002 (ip), vehicle: saline with Tween-80 102 % of control | endpoint: mean survival time, dose: 25.0 mg/kg/injection, schedule: Q01DX001 (ip), vehicle: saline with Tween-80 92 % of control | [10] 95 % of control | endpoint: mean survival time, dose: 50.0 mg/kg/injection, schedule: Q01DX001 (ip), vehicle: saline with Tween-80 106 % of control | [12] 87 % of control | [1] 92 % of control and 93 % of control | [13] 98 % of control

CCCCNc1nc2c(N)ncnc2n1C1OC(CO)C(O)C1O (configuration not stated)
inactive: endpoint: mean survival time, dose: 12.5 mg/kg/injection, schedule: Q01DX005 (ip), vehicle: distilled water + Tween-80 100 % of control and 97 % of control | endpoint: mean survival time, dose: 25.0 mg/kg/injection, schedule: Q01DX005 (ip), vehicle: distilled water + Tween-80 102 % of control and 100 % of control | endpoint: mean survival time, dose: 50.0 mg/kg/injection, schedule: Q01DX005 (ip), vehicle: distilled water + Tween-80 100 % of control | endpoint: mean survival time, dose: 100.0 mg/kg/injection, schedule: Q01DX005 (ip), vehicle: distilled water + Tween-80 100 % of control and 102 % of control | endpoint: mean survival time, dose: 200.0 mg/kg/injection, schedule: Q01DX005 (ip), vehicle: distilled water + Tween-80 100 % of control and 103 % of control

Nc1nc(N)c2c(n1)NCN(Cc1ccc(Cl)cc1Cl)C2
inactive: endpoint: mean survival time, dose: 0.75 mg/kg/injection, schedule: Q01DX009 (ip), vehicle: water 105 % of control | endpoint: mean survival time, dose: 1.5 mg/kg/injection, schedule: Q01DX009 (ip), vehicle: water 94 % of control | endpoint: mean survival time, dose: 3.0 mg/kg/injection, schedule: Q01DX009 (ip), vehicle: water 100 % of control | endpoint: mean survival time, dose: 6.0 mg/kg/injection, schedule: Q01DX009 (ip), vehicle: water 100 % of control | endpoint: mean survival time, dose: 12.0 mg/kg/injection, schedule: Q01DX009 (ip), vehicle: water 96 % of control | endpoint: mean survival time, dose: 24.0 mg/kg/injection, schedule: Q01DX009 (ip), vehicle: water 100 % of control | endpoint: mean survival time, dose: 37.5 mg/kg/injection, schedule: Q01DX009 (ip), vehicle: water 96 % of control | endpoint: mean survival time, dose: 75.0 mg/kg/injection, schedule: Q01DX009 (ip), vehicle: water 91 % of control

CCOC(=O)c1c[nH]c2cc(OCC3CC3)c(OCC3CC3)cc2c1=O
inactive: [7] 95 % of control | [8] 95 % of control | [9] 93 % of control

O=[N+]([O-])c1ccc(S(=O)(=O)OCc2ccccc2OS(=O)(=O)c2ccc([N+](=O)[O-])cc2)cc1
inactive: endpoint: mean survival time, dose: 25.0 mg/kg/injection, schedule: Q04DX003 (ip), vehicle: saline with Tween-80 109 % of control | endpoint: mean survival time, dose: 50.0 mg/kg/injection, schedule: Q04DX003 (ip), vehicle: saline with Tween-80 106 % of control | [7] 93 % of control

O=C1CCCC2C(=O)CCCC12 (configuration not stated)
inactive: [4] 97 % of control | [5] 103 % of control | [6] 103 % of control

CCC[n+]1c(C)oc2ccc(-c3ccccc3)cc21
inactive: [7] 100 % of control | [8] 101 % of control

CC(C)(C)CC(C)(C)c1ccc(OCCOc2ccccc2N)cc1
inactive: [4] 88 % of control | [5] 88 % of control | [6] 94 % of control

c1ccc2c(c1)oc1c3ccccc3c3ccccc3c21
inactive: endpoint: median survival time, dose: 25.0 mg/kg/injection, schedule: Q04DX002 (ip), vehicle: saline with Tween-80 110 % of control | endpoint: median survival time, dose: 50.0 mg/kg/injection, schedule: Q04DX002 (ip), vehicle: saline with Tween-80 90 % of control | endpoint: median survival time, dose: 100.0 mg/kg/injection, schedule: Q04DX002 (ip), vehicle: saline with Tween-80 110 % of control | endpoint: median survival time, dose: 200.0 mg/kg/injection, schedule: Q04DX002 (ip), vehicle: saline with Tween-80 110 % of control

CCOC(=O)Nc1cc(N(C)C)c(N)c(N)n1
inactive: endpoint: mean survival time, dose: 100.0 mg/kg/injection, schedule: Q01DX001 (ip), vehicle: carboxymethylcellulose (CMC) 100 % of control | endpoint: mean survival time, dose: 200.0 mg/kg/injection, schedule: Q01DX001 (ip), vehicle: carboxymethylcellulose (CMC) 100 % of control

O=S(=O)(/N=C/c1ccccc1)c1ccc(Cl)cc1
inactive: [11] 100 % of control | [4] 107 % of control

COc1ccc2c(c1)N(CCC1CCCCN1C)c1ccccc1S2 (configuration not stated)
inactive: endpoint: mean survival time, dose: 6.25 mg/kg/injection, schedule: Q04DX003 (ip), vehicle: saline 93 % of control and 100 % of control | endpoint: mean survival time, dose: 12.5 mg/kg/injection, schedule: Q04DX003 (ip), vehicle: Klucel (hydroxypropylcellulose) (HPC) 97 % of control | endpoint: mean survival time, dose: 12.5 mg/kg/injection, schedule: Q04DX003 (ip), vehicle: saline 98 % of control and 100 % of control | endpoint: mean survival time, dose: 25.0 mg/kg/injection, schedule: Q04DX003 (ip), vehicle: Klucel (hydroxypropylcellulose) (HPC) 95 % of control | endpoint: mean survival time, dose: 25.0 mg/kg/injection, schedule: Q04DX003 (ip), vehicle: saline 101 % of control and 102 % of control | endpoint: mean survival time, dose: 50.0 mg/kg/injection, schedule: Q04DX003 (ip), vehicle: Klucel (hydroxypropylcellulose) (HPC) 97 % of control | endpoint: mean survival time, dose: 50.0 mg/kg/injection, schedule: Q04DX003 (ip), vehicle: saline 106 % of control | endpoint: mean survival time, dose: 100.0 mg/kg/injection, schedule: Q04DX003 (ip), vehicle: Klucel (hydroxypropylcellulose) (HPC) 103 % of control

Cc1c2c(cc3c1CCC1(C)C3CCC1C(C)/C=C/C(C)C(C)C)CCC=C2 (configuration not stated)
inactive: [1] 95 % of control | [2] 90 % of control | [3] 86 % of control

O=C1OC(=O)c2c1ccc1c(O)cccc21
inactive: [1] 101 % of control | [2] 90 % of control | [3] 108 % of control

CCCCCCCCCCC(=O)CCCC
inactive: [7] 98 % of control | [8] 94 % of control | [9] 100 % of control

— PubChem BioAssay AID256 (DTP/NCI, 2004)
